From BindingDB's records for doi:10.1016/S0960-894X(01)81044-1 (1991) come the findings set out here.

One may read the Ki as a dissociation constant, usually derived from enzyme kinetics or from competition with a known ligand. Read a high Ki as lower affinity.

The nature of test [1]: Inhibitory activity against sweet almond Beta-glucosidase.
Assay in test [2]: as above
This is another data set of the same source.

In the case of `OC[C@H]1OC[C@@H](O)[C@@H]1O` [(2R,3S,4R)-2-Hydroxymethyl-tetrahydro-furan-3,4-diol], the affinity in test [1] corresponds to a Ki of 36.2 mM. That is a millimolar value.
Still for that read-out and setting: to `OC[C@H]1OC[C@H](O)[C@@H](O)[C@@H]1O` [(2R,3S,4R,5S)-2-(hydroxymethyl)oxane-3,4,5-triol] belongs 60 mM.
The same measure, in the same setting: to `O[C@H]1[C@H](O)COC[C@@H]1O` [(3S,4R,5R)-Tetrahydro-pyran-3,4,5-triol] belongs 39 mM.
With `NCCc1cn(C(=O)c2ccccc2)cn1` [[4-(2-Amino-ethyl)-imidazol-1-yl]-phenyl-methanone], in test [2], the inhibition constant (Ki) turned out to be 0.00011 mM. In other words, the sub-micromolar range.
As to `OC[C@H]1OC[C@@H](O)[C@H]1O` [(2R,3R,4R)-2-Hydroxymethyl-tetrahydro-furan-3,4-diol], the affinity in test [1] corresponds to a Ki of 14.8 mM.
